According to the supplement of paper PMC10307832:

Columns and labels:
Assay in all cases: relative viability (nuclei count vs DMSO), 5 days (fraction); higher = more cells survive
NCI-H1755 = tested on: NCI-H1755
How it was run: (§1)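 After 5 days of treatment, lung cancer cells in 1536-well plates were fixed and stained in a single step (final 0.05% Triton X-100, 1% formaldehyde, 1 ug/ml Hoechst) and their nuclei counted on 4× images. Treatment had been applied by pin tool the day after seeding as one drug alone or as a fixed anchor-drug dose with five library-drug doses (not always all listed) in √10 steps. Relative viability is the nuclei count of treated wells divided by that of vehicle wells, and values are medians of duplicate plates.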

COR-L 105 = tested on: COR-L 105
How it was run: as §1

A-427 = tested on: A-427
How it was run: as §1

NCI-H1395 = tested on: NCI-H1395
How it was run: as §1

NCI-H2009 = tested on: NCI-H2009
How it was run: as §1

SK-LU-1 = tested on: SK-LU-1
How it was run: as §1

LCLC-103H = tested on: LCLC-103H
How it was run: as §1

HARA = tested on: HARA
How it was run: as §1

EMC-BAC-2 = tested on: EMC-BAC-2
How it was run: as §1

NCI-H727 = tested on: NCI-H727
How it was run: as §1

HOP-62 = tested on: HOP-62
How it was run: as §1

NCI-H1437 = tested on: NCI-H1437
How it was run: as §1

NCI-H1915 = tested on: NCI-H1915
How it was run: as §1

NCI-H1792 = tested on: NCI-H1792
How it was run: as §1

NCI-H460 = tested on: NCI-H460
How it was run: as §1

HCC-366 = tested on: HCC-366
How it was run: as §1

SW 1573 = tested on: SW 1573
How it was run: as §1

NCI-H2228 = tested on: NCI-H2228
How it was run: as §1

CAL-12T = tested on: CAL-12T
How it was run: as §1

HCC-827 = tested on: HCC-827
How it was run: as §1

NCI-H522 = tested on: NCI-H522
How it was run: as §1

NCI-H23 = tested on: NCI-H23
How it was run: as §1

## Nc1ccn([C@@H]2O[C@H](CO)[C@@H](O)[C@@H]2O)c(=O)n1 [Cytarabine] + CC(=O)Nc1cccc(-n2c(=O)n(C3CC3)c(=O)c3c(Nc4ccc(I)cc4F)n(C)c(=O)c(C)c32)c1 [Trametinib] (partner 0.02 µM)
NCI-H1755; first compound 0.005 µM
  relative viability: 0.827
NCI-H1755; first compound 0.01581 µM
  relative viability: 0.76
NCI-H1755; first compound 0.05 µM
  relative viability: 0.681
NCI-H1755; first compound 0.1581 µM
  relative viability: 0.512
NCI-H1755; first compound 0.5 µM
  relative viability: 0.407
COR-L 105; first compound 0.005 µM
  relative viability: 0.435
COR-L 105; first compound 0.01581 µM
  relative viability: 0.473
COR-L 105; first compound 0.05 µM
  relative viability: 0.438
COR-L 105; first compound 0.1581 µM
  relative viability: 0.315
COR-L 105; first compound 0.5 µM
  relative viability: 0.302
A-427; first compound 0.005 µM
  relative viability: 0.714
A-427; first compound 0.01581 µM
  relative viability: 0.616
A-427; first compound 0.05 µM
  relative viability: 0.381
A-427; first compound 0.1581 µM
  relative viability: 0.273
A-427; first compound 0.5 µM
  relative viability: 0.225
NCI-H1395; first compound 0.005 µM
  relative viability: 1.06
NCI-H1395; first compound 0.01581 µM
  relative viability: 1.02
NCI-H1395; first compound 0.05 µM
  relative viability: 0.591
NCI-H1395; first compound 0.1581 µM
  relative viability: 0.524
NCI-H1395; first compound 0.5 µM
  relative viability: 0.436
NCI-H2009; first compound 0.005 µM
  relative viability: 0.271
NCI-H2009; first compound 0.01581 µM
  relative viability: 0.25
NCI-H2009; first compound 0.05 µM
  relative viability: 0.249
NCI-H2009; first compound 0.1581 µM
  relative viability: 0.238
NCI-H2009; first compound 0.5 µM
  relative viability: 0.137
SK-LU-1; first compound 0.005 µM
  relative viability: 0.416
SK-LU-1; first compound 0.01581 µM
  relative viability: 0.454
SK-LU-1; first compound 0.05 µM
  relative viability: 0.423
SK-LU-1; first compound 0.1581 µM
  relative viability: 0.356
SK-LU-1; first compound 0.5 µM
  relative viability: 0.303
LCLC-103H; first compound 0.005 µM
  relative viability: 0.692
LCLC-103H; first compound 0.01581 µM
  relative viability: 0.687
LCLC-103H; first compound 0.05 µM
  relative viability: 0.671
LCLC-103H; first compound 0.1581 µM
  relative viability: 0.682
LCLC-103H; first compound 0.5 µM
  relative viability: 0.742
HARA; first compound 0.005 µM
  relative viability: 1.03
HARA; first compound 0.01581 µM
  relative viability: 0.354
HARA; first compound 0.05 µM
  relative viability: 0.335
HARA; first compound 0.1581 µM
  relative viability: 0.204
HARA; first compound 0.5 µM
  relative viability: 0.231
EMC-BAC-2; first compound 0.005 µM
  relative viability: 0.972
EMC-BAC-2; first compound 0.01581 µM
  relative viability: 0.902
EMC-BAC-2; first compound 0.05 µM
  relative viability: 0.842
EMC-BAC-2; first compound 0.1581 µM
  relative viability: 0.497
EMC-BAC-2; first compound 0.5 µM
  relative viability: 0.427
NCI-H727; first compound 0.005 µM
  relative viability: 0.348
NCI-H727; first compound 0.01581 µM
  relative viability: 0.374
NCI-H727; first compound 0.05 µM
  relative viability: 0.354
NCI-H727; first compound 0.1581 µM
  relative viability: 0.336
NCI-H727; first compound 0.5 µM
  relative viability: 0.329
HOP-62; first compound 0.005 µM
  relative viability: 0.352
HOP-62; first compound 0.01581 µM
  relative viability: 0.327
HOP-62; first compound 0.05 µM
  relative viability: 0.261
HOP-62; first compound 0.1581 µM
  relative viability: 0.23
HOP-62; first compound 0.5 µM
  relative viability: 0.144
NCI-H1437; first compound 0.005 µM
  relative viability: 0.503
NCI-H1437; first compound 0.01581 µM
  relative viability: 0.406
NCI-H1437; first compound 0.05 µM
  relative viability: 0.416
NCI-H1437; first compound 0.1581 µM
  relative viability: 0.238
NCI-H1437; first compound 0.5 µM
  relative viability: 0.178
NCI-H1915; first compound 0.005 µM
  relative viability: 0.438
NCI-H1915; first compound 0.01581 µM
  relative viability: 0.285
NCI-H1915; first compound 0.05 µM
  relative viability: 0.251
NCI-H1915; first compound 0.1581 µM
  relative viability: 0.211
NCI-H1915; first compound 0.5 µM
  relative viability: 0.18
NCI-H1792; first compound 0.01581 µM
  relative viability: 0.438
NCI-H1792; first compound 0.05 µM
  relative viability: 0.356
NCI-H1792; first compound 0.1581 µM
  relative viability: 0.213
NCI-H1792; first compound 0.5 µM
  relative viability: 0.118
NCI-H460; first compound 0.005 µM
  relative viability: 0.13
NCI-H460; first compound 0.01581 µM
  relative viability: 0.111
NCI-H460; first compound 0.05 µM
  relative viability: 0.103
NCI-H460; first compound 0.1581 µM
  relative viability: 0.0544
NCI-H460; first compound 0.5 µM
  relative viability: 0.0417
HCC-366; first compound 0.005 µM
  relative viability: 0.276
HCC-366; first compound 0.01581 µM
  relative viability: 0.33
HCC-366; first compound 0.05 µM
  relative viability: 0.178
HCC-366; first compound 0.1581 µM
  relative viability: 0.0948
HCC-366; first compound 0.5 µM
  relative viability: 0.086
SW 1573; first compound 0.005 µM
  relative viability: 0.509
SW 1573; first compound 0.01581 µM
  relative viability: 0.482
SW 1573; first compound 0.05 µM
  relative viability: 0.415
SW 1573; first compound 0.1581 µM
  relative viability: 0.177
SW 1573; first compound 0.5 µM
  relative viability: 0.0822
NCI-H2228; first compound 0.005 µM
  relative viability: 0.288
NCI-H2228; first compound 0.01581 µM
  relative viability: 0.171
NCI-H2228; first compound 0.05 µM
  relative viability: 0.158
NCI-H2228; first compound 0.1581 µM
  relative viability: 0.127
NCI-H2228; first compound 0.5 µM
  relative viability: 0.116
CAL-12T; first compound 0.005 µM
  relative viability: 0.411
CAL-12T; first compound 0.01581 µM
  relative viability: 0.318
CAL-12T; first compound 0.05 µM
  relative viability: 0.326
CAL-12T; first compound 0.1581 µM
  relative viability: 0.22
CAL-12T; first compound 0.5 µM
  relative viability: 0.22
HCC-827; first compound 0.005 µM
  relative viability: 0.362
HCC-827; first compound 0.01581 µM
  relative viability: 0.313
HCC-827; first compound 0.05 µM
  relative viability: 0.239
HCC-827; first compound 0.1581 µM
  relative viability: 0.188
HCC-827; first compound 0.5 µM
  relative viability: 0.154
NCI-H522; first compound 0.005 µM
  relative viability: 0.823
NCI-H522; first compound 0.01581 µM
  relative viability: 0.75
NCI-H522; first compound 0.05 µM
  relative viability: 0.65
NCI-H522; first compound 0.1581 µM
  relative viability: 0.589
NCI-H522; first compound 0.5 µM
  relative viability: 0.515
NCI-H23; first compound 0.005 µM
  relative viability: 0.441
NCI-H23; first compound 0.01581 µM
  relative viability: 0.355
NCI-H23; first compound 0.05 µM
  relative viability: 0.223
NCI-H23; first compound 0.1581 µM
  relative viability: 0.165
NCI-H23; first compound 0.5 µM
  relative viability: 0.14
